The values below come from patent US8217055B2, “Pyrido-pyrazine derivatives useful as herbicidal compounds” (Syngenta Crop Protection LLC, priority 2006, dated 2012).

Holding throughout (assay): Example B2 herbicidal action, post-emergence, pots in glasshouse, evaluated after 13 days (10=total damage to plant; 0=no damage to plant)
What all share (type): in vivo

For one test, the system named is Ipomea hederaceae. As for the experimental part: (§1) Seeds of a variety of test species were sown in standard soil in pots. After 8 days cultivation (post-emergence) under controlled conditions in a glasshouse (at 24/16° C., day/night; 14 hours light; 65% humidity), the plants were sprayed with an aqueous spray solution derived from the formulation of the technical active ingredient in acetone/water (50:50) solution containing 0.5% Tween 20 (polyoxyethelyene sorbitan monolaurate, CAS RN 9005-64-5). The test plants were then grown in a glasshouse under controlled conditions in a glasshouse (at 24/16° C., day/night; 14 hours light; 65% humidity) and watered twice daily. After 13 days, the test was evaluated (10=total damage to plant; 0=no damage to plant).

The subject of a further test is Amaranthus retroflexus. The method, then:
as §1

A further test has as its system Solanum nigrum. The method, then:
as §1

A further test deals with Setaria faberi. The method, then:
as §1

In another test the test system is Echinochloa crus-galli. As for the experimental part:
as §1

For the molecule `COc1ccc(Br)cc1-c1c(OC(=O)C(C)(C)C)c2nccnc2n(CC(F)F)c1=O` [A38], the “IPOHE damage score (10=total damage to plant; 0=no damage to plant)” value in the test on Ipomea hederaceae (rate 1000 g/ha) is on record as 6. Also, in the test on Amaranthus retroflexus (rate 1000 g/ha), the “AMARE damage score (10=total damage to plant; 0=no damage to plant)” value is on record as 10. Moreover, in the test on Solanum nigrum (rate 1000 g/ha), the “SOLNI damage score (10=total damage to plant; 0=no damage to plant)” value turned out to be 9. Besides, the “SETFA damage score (10=total damage to plant; 0=no damage to plant)” value in the test with Setaria faberi (rate 1000 g/ha) worked out at 8. Besides, the “ECHCG damage score (10=total damage to plant; 0=no damage to plant)” value in the test with Echinochloa crus-galli (rate 1000 g/ha) is 6.

On to `O=c1c(-c2cc(C(F)(F)F)ccc2Cl)c(O)c2nccnc2n1CC(F)F` [B3], for which the “IPOHE damage score (10=total damage to plant; 0=no damage to plant)” value in the test with Ipomea hederaceae (rate 250 g/ha) is on record as 8. Further, the “AMARE damage score (10=total damage to plant; 0=no damage to plant)” value with Amaranthus retroflexus (rate 250 g/ha) turned out to be 10. In the test on Solanum nigrum (rate 250 g/ha), the “SOLNI damage score (10=total damage to plant; 0=no damage to plant)” value turned out to be 9. Moreover, the “SETFA damage score (10=total damage to plant; 0=no damage to plant)” value in the test with Setaria faberi (rate 250 g/ha) was 7. The “ECHCG damage score (10=total damage to plant; 0=no damage to plant)” value with Echinochloa crus-galli (rate 250 g/ha) came out at 7.

As to `CC(C)(C)C(=O)Oc1c(-c2cc(F)ccc2Cl)c(=O)n(CC(F)F)c2nccnc12` [A14], the “IPOHE damage score (10=total damage to plant; 0=no damage to plant)” value in the test with Ipomea hederaceae (rate 1000 g/ha) came to 10. Moreover, the “AMARE damage score (10=total damage to plant; 0=no damage to plant)” value with Amaranthus retroflexus (rate 1000 g/ha) is on record as 10. Also, the “SOLNI damage score (10=total damage to plant; 0=no damage to plant)” value with Solanum nigrum (rate 1000 g/ha) came out at 10. For the same molecule, the “SETFA damage score (10=total damage to plant; 0=no damage to plant)” value in the test with Setaria faberi (rate 1000 g/ha) is reported as 9. Besides, in the test on Echinochloa crus-galli (rate 1000 g/ha), the “ECHCG damage score (10=total damage to plant; 0=no damage to plant)” value was 7.

`O=c1c(-c2c(F)ccc([N+](=O)[O-])c2Cl)c(O)c2nccnc2n1CC(F)F` [B9]: the “IPOHE damage score (10=total damage to plant; 0=no damage to plant)” value in the test with Ipomea hederaceae (rate 1000 g/ha) was determined as 8. Further, the “AMARE damage score (10=total damage to plant; 0=no damage to plant)” value in the test on Amaranthus retroflexus (rate 1000 g/ha) amounted to 9. Also, the “SOLNI damage score (10=total damage to plant; 0=no damage to plant)” value in the test on Solanum nigrum (rate 1000 g/ha) stood at 9. The “SETFA damage score (10=total damage to plant; 0=no damage to plant)” value with Setaria faberi (rate 1000 g/ha) is given as 7. The “ECHCG damage score (10=total damage to plant; 0=no damage to plant)” value in the test with Echinochloa crus-galli (rate 1000 g/ha) was found to be 8.

Turning to `O=c1c(-c2c(Cl)cccc2C(F)(F)F)c(O)c2nccnc2n1CC(F)F` [B13], the “IPOHE damage score (10=total damage to plant; 0=no damage to plant)” value in the test with Ipomea hederaceae (rate 1000 g/ha) came to 10. Moreover, the “AMARE damage score (10=total damage to plant; 0=no damage to plant)” value in the test on Amaranthus retroflexus (rate 1000 g/ha) stood at 10. Moreover, the “SOLNI damage score (10=total damage to plant; 0=no damage to plant)” value in the test with Solanum nigrum (rate 1000 g/ha) was found to be 10. Besides, in the test with Setaria faberi (rate 1000 g/ha), the “SETFA damage score (10=total damage to plant; 0=no damage to plant)” value came to 9. Moreover, the “ECHCG damage score (10=total damage to plant; 0=no damage to plant)” value in the test on Echinochloa crus-galli (rate 1000 g/ha) came to 9.

As to `CC(C)C(=O)Oc1c(-c2c(F)ccc(F)c2Cl)c(=O)n(CC=C(Cl)Cl)c2nccnc12` [C14], the “IPOHE damage score (10=total damage to plant; 0=no damage to plant)” value in the test on Ipomea hederaceae (rate 1000 g/ha) is 1. The “AMARE damage score (10=total damage to plant; 0=no damage to plant)” value in the test on Amaranthus retroflexus (rate 1000 g/ha) was found to be 8. Moreover, the “SOLNI damage score (10=total damage to plant; 0=no damage to plant)” value in the test with Solanum nigrum (rate 1000 g/ha) is recorded as 8. The “SETFA damage score (10=total damage to plant; 0=no damage to plant)” value in the test on Setaria faberi (rate 1000 g/ha) is 0. Also, in the test with Echinochloa crus-galli (rate 1000 g/ha), the “ECHCG damage score (10=total damage to plant; 0=no damage to plant)” value is listed as 0.

On to `CC(C)(C)C(=O)Oc1c(-c2c(F)ccc(F)c2Cl)c(=O)n(CCC(F)=C(F)F)c2nccnc12` [C12], for which the “IPOHE damage score (10=total damage to plant; 0=no damage to plant)” value with Ipomea hederaceae (rate 1000 g/ha) is listed as 1. In the test on Amaranthus retroflexus (rate 1000 g/ha), the “AMARE damage score (10=total damage to plant; 0=no damage to plant)” value worked out at 6. In addition, the “SOLNI damage score (10=total damage to plant; 0=no damage to plant)” value in the test on Solanum nigrum (rate 1000 g/ha) was found to be 3. The “SETFA damage score (10=total damage to plant; 0=no damage to plant)” value with Setaria faberi (rate 1000 g/ha) amounted to 0. Besides, in the test on Echinochloa crus-galli (rate 1000 g/ha), the “ECHCG damage score (10=total damage to plant; 0=no damage to plant)” value was 0.

Take `CC(C)(C)C(=O)Oc1c(-c2ccccc2OC(F)F)c(=O)n(CC(F)F)c2nccnc12` [A28]: the “IPOHE damage score (10=total damage to plant; 0=no damage to plant)” value in the test with Ipomea hederaceae (rate 1000 g/ha) was 8. For the same molecule, the “AMARE damage score (10=total damage to plant; 0=no damage to plant)” value in the test with Amaranthus retroflexus (rate 1000 g/ha) came out at 9. Also, the “SOLNI damage score (10=total damage to plant; 0=no damage to plant)” value in the test with Solanum nigrum (rate 1000 g/ha) was 10. Further, in the test with Setaria faberi (rate 1000 g/ha), the “SETFA damage score (10=total damage to plant; 0=no damage to plant)” value was 3. For the same molecule, in the test on Echinochloa crus-galli (rate 1000 g/ha), the “ECHCG damage score (10=total damage to plant; 0=no damage to plant)” value was 1.

As to `O=c1c(-c2c(Cl)ccc(Cl)c2Cl)c(O)c2nccnc2n1CC(F)F` [B11, 5-(2,2-difluoro-ethyl)-8-hydroxy-7-(2,3,6-trichloro-phenyl)-5H-pyrido[2,3-b]pyrazin-6-one], the “IPOHE damage score (10=total damage to plant; 0=no damage to plant)” value in the test with Ipomea hederaceae (rate 1000 g/ha) was determined as 10. The “AMARE damage score (10=total damage to plant; 0=no damage to plant)” value in the test on Amaranthus retroflexus (rate 1000 g/ha) is recorded as 10. Further, in the test with Solanum nigrum (rate 1000 g/ha), the “SOLNI damage score (10=total damage to plant; 0=no damage to plant)” value was 10. The “SETFA damage score (10=total damage to plant; 0=no damage to plant)” value in the test on Setaria faberi (rate 1000 g/ha) came out at 9. In addition, in the test on Echinochloa crus-galli (rate 1000 g/ha), the “ECHCG damage score (10=total damage to plant; 0=no damage to plant)” value worked out at 8.

`CC(C)(C)C(=O)Oc1c(-c2ccc(C(F)(F)F)cc2Br)c(=O)n(CC(F)F)c2nccnc12` [A10]: the “IPOHE damage score (10=total damage to plant; 0=no damage to plant)” value in the test with Ipomea hederaceae (rate 1000 g/ha) was 5. Also, the “AMARE damage score (10=total damage to plant; 0=no damage to plant)” value with Amaranthus retroflexus (rate 1000 g/ha) is listed as 10. Moreover, the “SOLNI damage score (10=total damage to plant; 0=no damage to plant)” value in the test with Solanum nigrum (rate 1000 g/ha) turned out to be 9. Further, in the test with Setaria faberi (rate 1000 g/ha), the “SETFA damage score (10=total damage to plant; 0=no damage to plant)” value is 3. Moreover, the “ECHCG damage score (10=total damage to plant; 0=no damage to plant)” value in the test on Echinochloa crus-galli (rate 1000 g/ha) is 4.

Consider `CC(C)(C)C(=O)Oc1c(-c2c(F)ccc(F)c2Cl)c(=O)n(CC=C(Cl)Cl)c2nccnc12` [C13], for which the “IPOHE damage score (10=total damage to plant; 0=no damage to plant)” value in the test with Ipomea hederaceae (rate 1000 g/ha) is given as 1. Further, the “AMARE damage score (10=total damage to plant; 0=no damage to plant)” value in the test with Amaranthus retroflexus (rate 1000 g/ha) worked out at 0. Moreover, the “SOLNI damage score (10=total damage to plant; 0=no damage to plant)” value with Solanum nigrum (rate 1000 g/ha) is given as 3. For the same molecule, in the test with Setaria faberi (rate 1000 g/ha), the “SETFA damage score (10=total damage to plant; 0=no damage to plant)” value was 0. Moreover, the “ECHCG damage score (10=total damage to plant; 0=no damage to plant)” value in the test on Echinochloa crus-galli (rate 1000 g/ha) stood at 0.
